Test results as given in patent US20220387552A1, “METHODS OF MODULATING HAIR FOLLICLE STEM CELL QUIESCENCE BY MODULATING DERMAL NICHE ACTIVATOR GAS6” (President and Fellows of Harvard College, priority 2019, published 2022).
“Also recorded” adds a separate entry of the source.

Assays:
FACS-purified HFSCs = assay: Colony formation assay of cultured HFSCs; assay type: cell-based, mouse
Description: For the isolation of HFSCs, mouse dorsal skin was dissected, and the fat layer was removed using a surgical scalpel. The skin was incubated in trypsin-EDTA at 37° C. for 35-45 min on an orbital shaker. Single-cell suspension was obtained by scraping the epidermal side and filtering. Cells were centrifuged for 8 min at 350 g at 4° C., resuspended in 5% fetal bovine serum, and stained for 30-40 min. The following antibodies were used: CD49f (Integrin alpha 6)-PE (eBioscience, 12-0495-82; 1:500); CD34-eFlour660 (eBioscience, 50-0341-82; 1:100); Sca-1-PerCP-Cy5.5 (eBioscience, 45-5981-82; 1:1000); and CD45-eFlour450 (eBioscience, 48-0451-82; 1:250). The HFSCs were isolated as CD45^−, Integrin alpha 6^+, CD34^+, Sca-1^− cells.
FACS-purified HFSCs were plated on mitomycin C (P212121, Cat #M92010)-treated J2 fibroblast feeders at a density of 10,000 cells/well of 12-well plates, in E media supplemented with 15% (v/v) serum and 0.3 mM calcium as described in previous studies^78,79. For Gas6-treatment, E medium was supplemented with recombinant mouse Gas6 protein (R&D systems, Cat #8310-GS) at 500 ng/ml. For R428-treatment experiments, E medium was supplemented with R428 (APExBIO, Cat #A8329) at 1 μM. Cells were fixed and stained with 1% (wt/vol) Rhodamine B (Millipore Sigma, R6626). Colony diameter was measured from scanned images of plates using Image J.

ADX mice [1] = assay: Hair cycle progression of ADX mice treated topically with R428; assay type: in vivo; conditions: R428 2 mM in ethanol, topical once a day, back skin of ADX mice
Description: (§1) C57BL/6J mice were anesthetized. Small incisions were made on the back skin right on top of each adrenal gland. Both adrenal glands were removed with a pair of curved forceps. Sham-operated mice (Sham) underwent the same procedures as the ADX mice, except their adrenal glands were not removed.
RU486 (TCI America, Cat #M1732; 4% in ethanol) was used to induce K15-CrePGR by topical application for 10-14 days. To induce Pdgfra-CreER and Sox2-CreER, tamoxifen (Millipore Sigma, T5648; 20 mg/kg) was injected into mice intraperitoneally once per day for 4 to 6 days. To inhibit AXL activity, R428 (APExBIO, A8329; 2 mM in ethanol) was applied to ADX mice topically once a day. EdU (Lumiprobe Corporation, Cat #10540; 25 mg/kg) were administered by intraperitoneal injections. AAVs were produced as described previously^46 and injected directly into dermis through intradermal injections. 2-month-old C57BL/6J mice were injected with AAV-GFP or AAV-Gas6 (1×10^11 genome copy number per animal).
The hair cycle progression was documented by standardized photographs at the start of each experiment and weekly thereafter. Anagen was determined by darkening of the skin followed by hair growth as previously described^75. The back skin of mice was shaved with an electric clipper to reveal skin colour changes and hair coat recovery. […] Telogen length was quantified as described previously^19.

C57BL/6 mice = assay: Hair cycle progression of C57BL/6 mice under chronic corticosterone feeding; assay type: in vivo; conditions: wild-type mice, supplemental corticosterone in drinking water from second telogen; vehicle mice entered anagen around P90-P100
Description: The hair cycle progression was documented by standardized photographs at the start of each experiment and weekly thereafter. Anagen was determined by darkening of the skin followed by hair growth as previously described^75. The back skin of mice was shaved with an electric clipper to reveal skin colour changes and hair coat recovery. Once the hair coat recovery reached ˜90% of the back skin, the mice were shaved again to monitor the entry into next anagen. Telogen length was quantified as described previously^19. 35 μg/ml Corticosterone (Millipore Sigma, C2505) was dissolved in vehicle (0.45% hydroxypropyl-β-cyclodextrine in drinking water) in drinking water during the entire corticosterone feeding period. Corticosterone water was changed every 3 days to prevent degradation. Control animals received the vehicle water.

[2] = Plasma corticosterone levels by ELISA after corticosterone feeding; assay type: in vivo, mice
Description: 35 μg/ml Corticosterone (Millipore Sigma, C2505) was dissolved in vehicle (0.45% hydroxypropyl-β-cyclodextrine in drinking water) in drinking water during the entire corticosterone feeding period. Corticosterone water was changed every 3 days to prevent degradation. Control animals received the vehicle water. Blood corticosterone levels were measured by ELISA (ARBOR assays, [MUT]-H1) according to the manufacturer's instruction. Serum was collected using the heparinized tubes (Microvette® CB 300 LH or Microvette® 300 LH, Sarstedt) between 10 a.m. and 12 p.m.

ADX mice [3] = assay: Hair cycle progression of ADX mice fed corticosterone in drinking water; assay type: in vivo; conditions: 35 μg/ml corticosterone in drinking water
Description: as §1
The hair cycle progression was documented by standardized photographs at the start of each experiment and weekly thereafter. Anagen was determined by darkening of the skin followed by hair growth as previously described^75. The back skin of mice was shaved with an electric clipper to reveal skin colour changes and hair coat recovery. Once the hair coat recovery reached ˜90% of the back skin, the mice were shaved again to monitor the entry into next anagen. Telogen length was quantified as described previously^19.
Control animals received the vehicle water.

hair follicle = conditions: corticosterone feeding mice
Description: 35 μg/ml Corticosterone (Millipore Sigma, C2505) was dissolved in vehicle (0.45% hydroxypropyl-β-cyclodextrine in drinking water) in drinking water during the entire corticosterone feeding period. Corticosterone water was changed every 3 days to prevent degradation. Control animals received the vehicle water.
The skin samples were fixed in 4% paraformaldehyde (PFA, Electron Microscopy Sciences, Cat #15713) for 15 min at room temperature, washed in phosphate buffered saline (PBS), immersed in 30% sucrose solution overnight at 4° C., and embedded in optimal cutting temperature compound (Sakura Finetek, Cat #4583). 35 μm thick sections were fixed in 4% PFA. The fixed slides were then blocked in blocking buffer (5% Donkey serum, 1% bovine serum albumin, 2% cold-water fish gelatin in 0.3% Triton X-100 in PBS) for 1 h at room temperature, incubated with primary antibodies overnight at 4° C., and incubated with secondary antibodies for 2-4 h at room temperature. The following antibodies and dilutions were used: CD34 (eBioscience, 14-0341-85, 1:100), P-Cadherin (R&D Systems, AF761, 1:400), GFP (Abcam, ab290, 1:5000) and Cleaved Caspase-3 (Cell Signaling Technology, 1:300). DAPI was used as a counterstain for the nucleus.

## Nc1nc(Nc2ccc3c(c2)CC[C@@H](N2CCCC2)CC3)nn1-c1cc2c(nn1)-c1ccccc1CCC2 [R428]
FACS-purified HFSCs; R428 at 1 μM in E medium
  HFSC colony formation: inhibited HFSC colony formation
ADX mice [1]
  anagen entry / hair growth (hair cycle progression): suppressed their precocious anagen entry; also recorded: repress the phenotypes of ADX; also recorded: inhibit hair growth

## C[C@]12C[C@H](O)[C@H]3[C@@H](CCC4=CC(=O)CC[C@@]43C)[C@@H]1CC[C@@H]2C(=O)CO [corticosterone]
C57BL/6 mice
  anagen entry (hair cycle progression): stayed in telogen
[2]; ADX mice, corticosterone in drinking water
  plasma corticosterone levels: restored
[2]; wild-type mice, supplemental corticosterone in drinking water
  corticosterone levels in the circulation: enhanced corticosterone levels in the circulation
ADX mice [3]
  HFSC activation / quiescence (hair cycle progression): effectively suppressed the aberrant activation of HFSCs; also recorded: suppress the loss of HFSC quiescence of ADX mice
Hair follicle
  abnormal cell death in hair follicle (aCAS3): does not display abnormal cell death

B1: Gas6: recombinant mouse Gas6 protein (R&D systems, Cat #8310-GS); gamma-carboxyglutamic acid-containing secreted protein, AXL ligand (protein, UniProt Q61592 28-674, looked up)
Growth arrest-specific …: VLLRAREAAQFLRPRQRRAYQVFEEAKQGHLERECVEEVCSKEEAREVFENDPETEYFYPRYQECMRKYGRPEEKNPDFAKCVQNLPDQCTPNPCDKKGTHICQDLMGNFFCVCTDGWGGRLCDKDVNECVQKNGGCSQVCHNKPGSFQCACHSGFSLASDGQTCQDIDECTDSDTCGDARCKNLPGSYSCLCDEGYTYSSKEKTCQDVDECQQDRCEQTCVNSPGSYTCHCDGRGGLKLSPDMDTCEDILPCVPFSMAKSVKSLYLGRMFSGTPVIRLRFKRLQPTRLLAEFDFRTFDPEGVLFFAGGRSDSTWIVLGLRAGRLELQLRYNGVGRITSSGPTINHGMWQTISVEELERNLVIKVNKDAVMKIAVAGELFQLERGLYHLNLTVGGIPFKESELVQPINPRLDGCMRSWNWLNGEDSAIQETVKANTKMQCFSVTERGSFFPGNGFATYRLNYTRTSLDVGTETTWEVKVVARIRPATDTGVLLALVGDDDVVPISVALVDYHSTKKLKKQLVVLAVEDVALALMEIKVCDSQEHTVTVSLREGEATLEVDGTKGQSEVSTAQLQERLDTLKTHLQGSVHTYVGGLPEVSVISAPVTAFYRGCMTLEVNGKILDLDTASYKHSDITSHSCPPVEHATP
FACS-purified HFSCs; recombinant mouse Gas6 protein at 500 ng/ml in E medium
  HFSC colony formation: formed more colonies
